One assay has as its system COS-7 cells. The experiment in a line: Ad-GFP adenovirus infection of COS-7 cells (Western blot, fluorescence microscopy, flow cytometry). Format: cell-based. As for the experimental part:
(§1) Adenoviruses (1 m.o.i. or approximately 1×10^6 pfu per 60 mm dish) were pre-complexed with the peptides (0.05 to 5 mM) in 100 μl of serum free media (OptiMEM; Gibco, Grand Island, N.Y.) for 30 min at room temperature. Cells (COS-7 or BAEC) were grown on 60 mm dishes until 90% confluent and media was changed to serum free (2 ml) before exposure to the adenovirus complex. The complex (100 μl) was added to the cells for 4 hrs and then the cells were washed and changed to complete growth media for 24 to 48 hours.
(§2) Western blotting was performed as described previously (16). Briefly, cells were lysed (50 mM Tris-HCl, 0.1 mM EDTA, 0.1 mM EGTA, 1% (v/v) Nonidet P-40, 0.1% SDS, 0.1% deoxycholic acid, 1 mM Pefabloc, 10 μg/ml aprotinin, and 10 μg/ml leupeptin) for 1 hr at 4° C. and the soluble material was separated on a 10% SDS-PAGE, and transferred to a nitrocellulose membrane. Blocked membranes were probed using the specific polyclonal anti-GFP (Clontech, Palo Alto, Calif.) or the monoclonal anti-hsp90(Stressgen, Victoria, Canada) antibodies. After washing and incubating with secondary antibodies, immunoreactive proteins were visualized by ECL detection system (Amersham, Buckinghamshire, UK).
Live cells infected with Ad-GFP were washed with serum free media and visualized using a Zeiss Axiovert 200 microscope under phase contrast or GFP filters (excitation 450 nm, emission 510 nm). Images were captured using the Openlab Imaging software (Improvision, Lexington, Mass.). Flow cytometric analysis of GFP expressing cells was performed 48 h after following infection. Cells were trypsinized, PBS washed and fixed in 70% ethanol at 4° C. Cells were resuspended in PBS and were analyzed by gating for GFP fluorescence by flow cytometry using a FACSort (Becton Dickinson, San Jose, Calif.).
For orientation: In western blotting, separated proteins are transferred to a membrane and probed.

Assay [1] has as its system vascular permeability in mouse ear. The experiment in a line: Permeability assay: Evans blue leakage in mouse ear after intradermal Ad-VEGF. In kind it is in vivo. As for the experimental part:
Ad-VEGF (5.5×10^7 pfu) or Ad-β-gal (2.5×10^7 pfu) with or without AP complex (10 μM; 30 minutes at room temperature) was injected intradermally into the ear of CD1 mouse. Evans blue leakage was monitored 4 days after infection as described previously (9).

Assay [2] deals with blood vessels of the lower limbs (PECAM/CD31 positive area). The experiment in a line: Ischemic hind limb angiogenesis assay with intramuscular Ad-VEGF. Format: in vivo, mouse. The note with it: intramuscular Ad-VEGF 5.5×10^7 pfu in presence of AP, hind limb ischemia. As to the method:
(§3) Ischemic hind limb model was performed as described previously (19). Briefly, following anesthesia, the left femoral artery was exposed under a dissection microscope. The proximal end of the femoral artery and the distal portion of the saphenous artery were ligated. All branches between these two sites were cauterized, and arteriectomy was performed. Following arteriectomy, 25 μl of either virus storage buffer, Ad-VEGF (5.5×10^7 pfu), Ad- -ga l (2.5×10^7 pfu), pre-complexed with AP (30 min room temperature; 10 μM) or AP alone (at least 5 animals per group) was injected into the adductor muscle at 3 different sites. Mice were sacrificed 21 days following surgery and muscles of the lower limbs were harvested, methanol fixed and paraffm embedded. Tissue sections (5 μm thick) were stained using an anti-CD31 antibody (Pharmingen, San Diego, Calif.), and hematoxylin counter stained. Pictures from 4 random areas of each section, and 3 sections per mice were taken using a Kodak digital camera mounted on a light microscope (40× objective). Capillary density was quantified by measuring the percentage of CD31 positive area out of total area using the Matlab software (The Math Works, Inc.).

Assay [3] concerns human umbilical vascular endothelial cells (HUVEC). The experiment in a line: Ret-GFP retrovirus infection of HUVEC (Western blot, fluorescence microscopy). In kind it is cell-based. As to the method:
For retroviral infections supernatant from phoenix retroviral packaging cell line expressing […] was incubated for 30 min at 37 C in presence of AP (0.1-0.5 mM). HUVEC cells were exposed to the mixture for 24 hrs and then harvested.
as §2
Live cells infected with Ad-GFP were washed with serum free media and visualized using a Zeiss Axiovert 200 microscope under phase contrast or GFP filters (excitation 450 nm, emission 510 nm). Images were captured using the Openlab Imaging software (Improvision, Lexington, Mass.). […] Cells were resuspended in PBS and were analyzed by gating for GFP fluorescence by flow cytometry using a FACSort (Becton Dickinson, San Jose, Calif.).

For assay [4], the system named is bovine aortic endothelial cells (BAEC). In words: Ad-GFP adenovirus infection of bovine aortic endothelial cells (Western blot). Format: cell-based. The note with it: AP/Ad-GFP complex. As for the experimental part: as §1, §2
Assay [5] has the same test system. The experiment in a line: Nitric oxide release from BAEC infected with Ad-eNOS or Ad-GFP. Format: cell-based. As for the experimental part: as §1
Basal NO2^− release from BAEC, a stable metabolite of NO, was assessed in the medium as described (9). In all experiments, release was attenuated by a NOS inhibitor.

Assay [6] deals with carotid arteries from eNOS -/- mice. The experiment in a line: Isometric studies: acetylcholine-induced relaxation of eNOS -/- carotid arteries transduced with Ad-eNOS. Set-up: species or system mouse. The conditions noted are these: carotid arteries of eNOS (-/-) mice luminally transduced with Ad-eNOS, without or pre-complexed with AP. As to the method: (§4) The common carotid artery was cannulated, flushed with a small amount (˜3 μl) of virus and tied off proximally. Approximately 3 μl of Ad-β-gal (1×10^9 pfu/ml), Ad-GFP (1×10^9 pfu/ml), Ad-eNOS (5×10^10 pfu/ml) virus or virus complexed with AP (10 μM) for 30 min at room temperature was injected. The virus-filled vessel was incubated in situ at 37° C. for 2 hours and then rinsed in saline prior to overnight (18 hours) incubation in complete DMEM at 37° C., 5% CO2. Control vessels were filled with viral storage buffer and treated in an identical manner.
Rings of carotid artery were studied as described previously (17). To assess endothelial function, vessels were precontracted with a submaximal (˜80%) concentration of PGF2α (5×10^−6 mol/L) prior to application of endothelium-dependent dilator acetylcholine (10^−10−3×10^−6 mol/L).

The test system of assay [7] is mouse carotid artery endothelium. The experiment in a line: Endothelium specific gene transfer of mouse carotid arteries ex vivo (Ad-GFP, Ad-β-gal). As to the method: as §4
(§5) -galactosidase expression was monitored by either X-Gal staining or activity 4 days after virus administration as described previously (14,18).

The subject of another assay is adductor muscle. In words: Intramuscular Ad-β-gal reporter virus injection into mouse adductor muscle. Format: in vivo. The conditions noted are these: Ad-β-gal 5×10^7 pfU in 25 μl, three sites, pre-complexed with AP 10 μM. As to the method:
as §5, §3

Experimental findings from patent US20050003546A1, “Viral uptake into cells and tissues” (Yale University, priority 2001, published 2005) are described below.

Turning to RQIKIWFQNRRMKWKK [AP], in the assay on COS-7 cells (AP 0.05 to 5.0 mM pre-incubated 30 min with Ad-GFP 1 m.o.i., diluted 20 fold into medium, COS-7), the “expression of GFP (western blotting)” value is “dose-dependently improved”. Also, the “increase in cells strongly positive for GFP (M2), flow cytometry” value in the assay with COS-7 cells (Ad-GFP 1 m.o.i. pre-complexed with AP vs Ad-GFP alone, COS-7) was approximately 10 fold. Besides, in the assay on COS-7 cells (Ad-GFP pre-incubated with 0.5 mM AP, COS-7), the “numbers of GFP positive cells (fluorescent microscopy) compared to virus alone” value is recorded as “increased numbers”. In the assay on COS-7 cells (COS-7, Ad-GFP), the “GFP expression when cells exposed to AP prior to or after Ad-GFP infection (no pre-complex step)” value is “did not yield an increase”. Moreover, in [1] (AP complexed with Ad-VEGF, mouse ear), the “increase of basal vascular permeability over Ad-VEGF alone” value was 2.5 fold. Further, the “ability of VEGF to promote vascular leak (extravasation of Evans blue)” value in [1] (Ad-VEGF 5.5×10^7 pfu with AP, intradermal, 4 days) is given as “significantly enhanced”. In addition, the “PECAM positive vessels compared to Ad-VEGF alone” value in [2] is more than 4 fold. In addition, the “GFP expression (western blot)” value in assay [3] (AP 0.05-0.5 mM added to Ret-GFP viral supernatant (approximately 10^6-10^7 pfu/ml)) is reported as “dose-dependently enhanced”. Further, in assay [3] (AP/Ret-GFP complex), the “GFP positive cells (fluorescence microscopy)” value is “substantial increase”. In addition, the “GFP expression levels (western blotting) compared to Ad-GFP alone” value in assay [4] is given as “marked increase”. In assay [5] (1 m.o.i. of eNOS virus in absence or presence of AP), the “Ad-eNOS mediated NO release from cultured endothelial cells” value is reported as “improves”. Further, the “NO release with control virus Ad-GFP” value in assay [5] (Ad-GFP 1 m.o.i. in absence or presence of AP) is “does not influence”. Further, the “endothelium dependent dilation in response to acetylcholine (Ach)” value in assay [6] is recorded as “improved”. In [7] (Ad-GFP 10^9 pfu/ml pre-complexed with AP 10 μM, luminal, ex vivo), the “infectivity of the Ad-GFP virus (en face fluorescence imaging)” value is on record as “markedly improved”. Further, the “X-Gal staining in the endothelial cell layer (tissue cross section)” value in [7] (Ad-β-gal 10^9 pfu/ml, AP pre-treatment, ex vivo) is given as “increased staining”. In addition, the “β-galactosidase activity increase over Ad-β-gal infection alone” value in assay [7] (carotid arteries treated with AP/Ad-β-gal complex) is reported as “two”. Moreover, in the assay on adductor muscle, the “staining for β-galactosidase activity in adductor muscle” value was “increased”.
Consider “GRKKRRQRRRPPQ (Human immunodeficiency virus) [Tat peptide, synthetic peptide, HIV Tat amino acids 48-60]”, for which the “increasing Ad-GFP infection (GFP western blot), compared with AP” value in the assay with COS-7 cells (Tat peptide 0.1 and 0.5 mM, COS-7) is recorded as “as efficient as AP”.
